# Assay results reported in US9132140B2, “Boronic acid derivatives and therapeutic uses thereof” (Rempex Pharmaceuticals, Inc., priority 2013, dated 2015).
# pKi: −log10 of the molar value.
# Tests used:
# [1] = tested on: panel of clinical isolates expressing class A, B and D carbapenemases; assay: Carbapenem potentiation MIC, whole panel; format: cell-based; conditions: all strains of the panel; compound fixed 5 μg/ml
# Source text: The results are present in Table 6.
# The results are present in Table 7.
# [2] = tested on: ECM6703 (pUCP24-NDM-1); assay: microbe, parasite or virus in culture; format: cell-based, E. coli; conditions: NDM-1 producing strain; compound fixed 4 μg/ml or 8 μg/ml
# [3] = biological target: T1, KPC-2 (Klebsiella pneumoniae, UniProt Q9F663); assay: Inhibition of purified class A carbapenemase, biapenem cleavage; format: biochemical; conditions: substrate biapenem 100 μM
# T1 sequence (Q9F663 25-293, looked up, species assumed): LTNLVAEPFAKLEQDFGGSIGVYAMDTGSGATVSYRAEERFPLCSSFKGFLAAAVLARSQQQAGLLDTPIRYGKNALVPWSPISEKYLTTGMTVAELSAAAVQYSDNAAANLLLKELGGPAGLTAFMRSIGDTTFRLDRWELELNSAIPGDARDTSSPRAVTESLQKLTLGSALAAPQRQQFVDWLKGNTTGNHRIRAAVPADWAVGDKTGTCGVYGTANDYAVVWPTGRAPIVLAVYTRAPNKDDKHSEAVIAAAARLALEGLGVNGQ
# [4] = biological target: T1, KPC-2; assay: Inhibition of purified beta-lactamase, nitrocefin cleavage; format: biochemical; conditions: read-out: Ki (KPC-2, NCF)
# Experimental: Purified enzymes were mixed with various concentrations of inhibitors in reaction buffer and incubated for 10 min at room temperature. Nitrocefin was added and substrate cleavage profiles were recorded at 490 nm every 10 sec for 10 min.
# [5] = tested on: ECM6711 (pUCP24-VIM-1); assay: microbe, parasite or virus in culture; format: cell-based, E. coli; conditions: VIM-1 producing strain; compound fixed 4 μg/ml or 8 μg/ml
compound,measurement,setting,value
"O=C(O)c1cccc2c1OB(O)[C@@H](Sc1nncs1)C2 [Compound 1, (R)-3-(1,3,4-thiadiazol-2-ylthio)-2-hydroxy-3,4-dihydro-2H-benzo[e][1,2]oxaborinine-8-carboxylic acid]",carbapenem MIC in the presence of compound,[1],significantly reduced
same,imipenem MIC in the presence of compound,[2],decreased to the level of the strain containing empty vector
same,pKi,[3],7.00 to 8.00
same,pKi,[4],6.00 to 7.00
same,imipenem MIC in the presence of compound,[5],decreased to the level of the strain containing empty vector
